Three molecules from PMC4291223, “Inhibitors of CLK Protein Kinases Suppress Cell Growth and Induce Apoptosis by Modulating Pre-mRNA Splicing” (PLoS ONE, 2015) can be followed below.

One test concerns HCT-116 cells. Nature of the test: Cell viability assay, HCT-116. It counts as cell-based. As to conditions: Homo sapiens; HCT-116 colorectal cancer.
Test [1] deals with S6K pre-mRNA splicing in HCT-116 cells. As to the kind of experiment: S6K pre-mRNA splicing alteration (quantitative RT-PCR), HCT-116. As to conditions: ratio of S6K exons 6–8 to exons 6–7 is 0.1. In kind it is cell-based, human. The source says:
(§1) To examine whether inhibition of a particular CLK and/or SRPK contributed to the alternative splicing of S6K pre-mRNA, we used an additional series of compounds with the same scaffold as Cpd-1, Cpd-2, and Cpd-3, but different selectivity. First, we examined the correlation between the enzymatic activity and the level of splicing alterations of S6K pre-mRNA for the individual compounds. We used the exon 7-skipped type of S6K variant to calibrate Rc0.1 values, i.e., the concentrations that induced 10% of the copy number of an alternative isoform compared with that of the canonical isoform. The inhibition of CLK1 and CLK2 activities was correlated with the splicing alteration activities (Rc0.1) (R^2 = 0.3353 and 0.4255, respectively). In contrast, there was no correlation between the activities of SRPKs and the Rc0.1 values (R^2 < 0.0468) (Fig. 3A). Next, we compared the levels of splicing alteration and growth inhibition of the compounds. […] Similar correlations between Rc0.1 and GI50 values were also obtained in seven different cancer cell lines after treatment with Cpd-2 or Cpd-3 (Table 2).
(§2) Total RNA was extracted using an RNeasy Miniprep Kit (Qiagen, Valencia, CA) in accordance with the manufacturer’s instructions. Reverse transcription was performed using a TaqMan Reverse Transcription Reagents Kit (Applied Biosystems, Carlsbad, CA). The PCR conditions were as follows: one cycle of 5 min at 95°C; 35 cycles of 30 s at 94°C, 30 s at 60°C, and 30 s at 72°C; and one cycle of 10 min at 72°C. The PCR products were separated in 2% agarose gels. Real-time PCR was performed using a TaqMan MGB probe (Applied Biosystems), and the amount of FAM fluorescence was measured as a function of the PCR cycle number (CT) using an ABI 7900 Real-time PCR System (Applied Biosystems). The expression level of each mRNA was normalized by that of GAPDH mRNA.

The target in the next test is T1, CLK2 (Homo sapiens, UniProt P49760).
T1 construct: purchased Life Technologies
As to the kind of experiment: Kinase panel assay (Z'-LYTE, SelectScreen), CLK2 among 28 kinases. In kind it is biochemical. As to conditions: 100 and 1000 nM. The procedure:
(§3) Kinase panel assays were performed using the FRET-based Z’- LYTE enzymatic kinase assay system (Life Technologies, Carlsbad, CA), which was carried out using the SelectScreen Kinase Profiling Service (Life Technologies). The standard reaction contained 2 μM peptide substrate, 100 μM ATP, 50 mM HEPES (pH 7.5), 0.01% Brij-35, 10 mM MgCl2, 1 mM EGTA, and each kinase. Cpd-1, Cpd-2, and Cpd-3 at two point concentration (100 and 1000 nM) with duplicate data points (n = 2) were assayed following the detailed procedures outlined in the SelectScreen. The full assay protocol and conditions can be obtained at www.lifetechnologies.com. Percent inhibition represents a ratio of phosphorylated product formed in the presence of the compound compared with phosphorylated product formed in reactions containing 1% DMSO. Inhibition data indicates the mean value of kinase inhibition from duplicate data.

Another test concerns A549 cells. As to the kind of experiment: Cell viability assay, A549. Conditions: Homo sapiens; A549 non-small cell lung cancer. It counts as cell-based.
The test system of test [2] is nuclear speckles in MDA-MB-468 cells. Nature of the test: Immunofluorescence of nuclear speckles (anti-SC35). In kind it is cell-based, human. As to conditions: MDA-MB-468, 6 h, anti-SC35 antibody. The procedure:
MDA-MB-468 cells were fixed with 4% paraformaldehyde for 30 min at room temperature, washed with PBS, blocked with 5% BSA in PBS, incubated with an anti-SC35 antibody (Abcam, Cambridge, UK) for 1 h at room temperature, and incubated with a secondary antibody for 1 h. The cells were mounted and counterstained with DAPI (Vector Laboratories, Burlingame, CA) and detected using fluorescence microscopy.

In another test the test system is COLO205 cells. Nature of the test: Cell viability assay, COLO205. In kind it is cell-based. As to conditions: Homo sapiens, COLO 205; COLO205 colorectal cancer.
Test [3] has as its system mRNA isoforms harboring PTCs in MDA-MB-468 cells. Nature of the test: Fluorescence pulse-chase RNA labeling assay. In kind it is cell-based, human. As to conditions: 50 μM Cpd-1 or 5 μM Cpd-2. On the procedure: MDA-MB-468 cells (5 × 10^5) were seeded into 6-well plates and incubated overnight. The cells were treated with each compound for 6 h and incubated with culture medium containing 5-EU (Invitrogen) to label cellular RNA. After incubation for 1 h, the medium was replaced with EU-free fresh medium and the cells were cultured for a further 24 h to allow degradation of the labeled RNA (chase). Cells were harvested before and after the chase and EU-labeled RNA was isolated using a Click-iT Nascent RNA Capture Kit (Invitrogen) according to the manufacturer’s instructions. The isolated RNA was analyzed by quantitative RT-PCR to measure the amount of each mRNA splice isoform.

The test system of test [4] is S6K pre-mRNA splicing in COLO320DM cells. As to the kind of experiment: S6K pre-mRNA splicing alteration (quantitative RT-PCR), COLO320DM. In kind it is cell-based, human. As to conditions: ratio of S6K exons 6–8 to exons 6–7 is 0.1.
From the text: as §1, §2

The next test has as its system SW620 cells. Nature of the test: Cell viability assay, SW620. In kind it is cell-based. As to conditions: Homo sapiens, SW-620; SW620 colorectal cancer.
The subject of a further test is MDA-MB-468 cells. As to the kind of experiment: Cell viability assay (CellTiter-Glo), MDA-MB-468. Conditions: Homo sapiens; MDA-MB-468 breast cancer, 72 h. It counts as cell-based. On the procedure: MDA-MB-468 cells (5 × 10^3) were seeded into 96-well plates and incubated overnight in 50 μL of culture medium. Next, 50 µL of each compound diluted in culture medium was added to the wells. After 72 h of incubation, viability was determined using the CellTiter-Glo Luminescent Cell Viability Assay (Promega) according to the manufacturer’s instructions. The GI50 values were calculated using GraphPad Prism 5 software with a sigmoid dose-response curve.

Test [5] has as its system S6K pre-mRNA splicing in A549 cells. Nature of the test: S6K pre-mRNA splicing alteration (quantitative RT-PCR), A549. It counts as cell-based, human. As to conditions: ratio of S6K exons 6–8 to exons 6–7 is 0.1.
From the text: as §1, §2

The test system of test [6] is S6K pre-mRNA splicing in COLO205 cells. Nature of the test: S6K pre-mRNA splicing alteration (quantitative RT-PCR), COLO205. It counts as cell-based, human. Conditions: ratio of S6K exons 6–8 to exons 6–7 is 0.1.
From the text: as §1, §2

For the next test, the system named is COLO320DM cells. Nature of the test: Cell viability assay, COLO320DM. It counts as cell-based. Conditions: Homo sapiens, COLO 320DM; COLO320DM colorectal cancer.
A further test has as its target Aurora kinase A (Homo sapiens, UniProt O14965). Nature of the test: Kinase panel assay (Z'-LYTE, SelectScreen), Aurora kinase A. It counts as biochemical. Conditions: 1 μM compound, 100 μM ATP; among kinases inhibited by more than 50%. The procedure:
as §3

SMILES strings stand for the structures. Bounds are passed on as bounds.

T1 sequence (P49760 whole entry): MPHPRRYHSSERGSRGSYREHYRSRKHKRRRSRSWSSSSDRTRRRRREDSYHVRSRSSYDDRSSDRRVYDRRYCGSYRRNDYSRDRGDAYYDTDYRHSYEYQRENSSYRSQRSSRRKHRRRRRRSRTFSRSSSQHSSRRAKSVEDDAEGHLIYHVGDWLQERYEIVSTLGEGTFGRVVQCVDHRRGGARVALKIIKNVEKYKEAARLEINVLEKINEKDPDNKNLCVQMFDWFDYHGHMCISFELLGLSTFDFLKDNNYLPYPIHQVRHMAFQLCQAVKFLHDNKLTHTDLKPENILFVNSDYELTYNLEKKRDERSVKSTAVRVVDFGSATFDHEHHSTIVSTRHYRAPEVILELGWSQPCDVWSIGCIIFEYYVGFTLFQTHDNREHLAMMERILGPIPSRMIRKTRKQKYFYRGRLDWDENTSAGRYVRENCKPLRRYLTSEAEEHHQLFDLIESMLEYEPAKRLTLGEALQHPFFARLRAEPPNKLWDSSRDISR
Aurora kinase A, sequence (O14965 whole entry): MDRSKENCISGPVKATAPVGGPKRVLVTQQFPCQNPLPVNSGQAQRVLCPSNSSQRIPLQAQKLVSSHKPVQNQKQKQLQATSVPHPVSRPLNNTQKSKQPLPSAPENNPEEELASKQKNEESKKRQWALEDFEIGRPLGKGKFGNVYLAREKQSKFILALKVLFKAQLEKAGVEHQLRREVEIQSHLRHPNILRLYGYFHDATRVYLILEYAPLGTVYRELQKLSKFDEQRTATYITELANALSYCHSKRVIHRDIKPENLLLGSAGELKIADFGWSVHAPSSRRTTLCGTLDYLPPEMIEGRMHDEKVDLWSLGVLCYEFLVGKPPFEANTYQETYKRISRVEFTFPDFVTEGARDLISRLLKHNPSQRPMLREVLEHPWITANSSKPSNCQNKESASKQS

Broadly, the GI50 is the concentration giving 50% growth inhibition. In the case of `CC(C)(CCc1nnn[nH]1)c1ccc(C(=O)Nc2cn3cc(C(F)(F)F)ccc3n2)cc1` [Cpd-1, 4-(2-methyl-4-(1H-tetrazol-5-yl)butan-2-yl)-N-(6-(trifluoromethyl)imidazo[1,2-a]pyridin-2-yl)benzamide], the concentration for 50% growth inhibition (GI50) in the test on HCT-116 cells worked out at 70.2 µM; in the test on A549 cells, 102 µM; in the test with COLO205 cells, 27.3 µM; with SW620 cells, 41.8 µM; in the test on MDA-MB-468 cells it was 30.5 µM; in the test with COLO320DM cells it was 43 µM. Further, the Rc0.1 in [1], in test [4], in test [5] and in [6] was over 10 µM each time. For the same molecule, on CLK2, the “inhibitory activity against CLK2 among the 28 critical oncology-related kinases” value is “strongest inhibitory activity against CLK2”. In test [2], the “effect on nuclear speckles” value is listed as “induced enlargement of nuclear speckles”. In addition, the “amounts of S6K mRNA isoforms harboring PTCs (exons 6–8, exons 6–10) versus canonical S6K exons 6–7 after 24 h chase” value in test [3] was “significantly lower”. The “inhibition of Aurora kinase A in kinase panel” value against Aurora kinase A is “moderately inhibited”.

As to `CC(C)(C)c1ccc(C(=O)Nc2cn3cc(-c4cn[nH]c4)ccc3n2)cn1` [Cpd-2, 6-tert-butyl-N-(6-(1H-pyrazol-4-yl)imidazo[1,2-a]pyridin-2-yl)nicotinamide], the GI50 was determined as 2.2 µM in the test on HCT-116 cells; 1.9 µM in the test on A549 cells; 1.7 µM in the test on COLO205 cells; 2 µM in the test on SW620 cells; 3 µM in the test on MDA-MB-468 cells; 0.6 µM in the test with COLO320DM cells. In addition, the Rc0.1 in test [1] turned out to be 1.2 µM; in test [4], 0.9 µM; in test [5], 0.3 µM; in test [6] it was 1.6 µM. Moreover, at CLK2, the “inhibitory activity against CLK2 among the 28 critical oncology-related kinases” value is “strongest inhibitory activity against CLK2”. In [2], the “effect on nuclear speckles” value is “induced enlargement of nuclear speckles”. Moreover, the “amounts of S6K mRNA isoforms harboring PTCs (exons 6–8, exons 6–10) versus canonical S6K exons 6–7 after 24 h chase” value in test [3] was “significantly lower”.

In the case of `CC(C)(CO)c1ccc(C(=O)Nc2cn3cc(-c4cn[nH]c4)ccc3n2)cc1` [Cpd-3, 4-(1-hydroxy-2-methylpropan-2-yl)-N-(6-(1H-pyrazol-4-yl)imidazo[1,2-a]pyridin-2-yl)benzamide], the GI50 in the test with HCT-116 cells amounted to 2.5 µM; in the test with A549 cells, 2.6 µM; with COLO205 cells, 2.1 µM; in the test on SW620 cells, 2.9 µM; in the test on MDA-MB-468 cells, 3.4 µM; in the test on COLO320DM cells it was 1.5 µM. Moreover, the Rc0.1 in [1] came to 1.9 µM; in test [4], 1.1 µM; in [5] it was 1.2 µM; in test [6], 2.6 µM. Further, the “inhibitory activity against CLK2 among the 28 critical oncology-related kinases” value on CLK2 was “strongest inhibitory activity against CLK2”. In addition, the “effect on nuclear speckles” value in [2] is “induced enlargement of nuclear speckles”. The “inhibition of Aurora kinase A in kinase panel” value against Aurora kinase A is on record as “moderately inhibited”.
